From patent US8232101B2, “Identification of antigenic peptides from multiple myeloma cells” (Janssen Pharmaceutica N.V., priority 2009, dated 2012) come the findings set out here.

Test [1] addresses T1, HLA-A2 molecules in T2 cells (Homo sapiens, UniProt P04439, D140Y/D185E/D98H/E176V/E277Q/G131W/G231S/I119V/I121R/I166T/I218V/L300P/L318F/N151K/N90K/P208A/P217A/Q86G/Q94H/R138H/R169H/T345S).
T1 construct: HLA-A2 molecules that are synthesized in a transporter associated with antigen processing (TAP)-deficient cell line, T2; host or cells: T2 cells (TAP-deficient human cell line)
In words: HLA-A2 Stabilization Assay (peptide binding, T2 cells, flow cytometry). The arrangement: key: Strong (S); Median (M); Weak (W); None (N). As to conditions: truncated versions of P3, P13, P14. The text has this: The assay for peptide binding to class I major histocompatibility complex (MHC/HLA-A2) molecules is based on the ability of peptides to stabilize MHC class I, HLA-A2 molecules that are synthesized in a transporter associated with antigen processing (TAP)-deficient cell line, T2 (ATCC® Number: CRL-1992). The extent of stabilization of MHC class I molecules is directly related to the binding affinity of the added peptides (Townsend et al., Cell. 1990 Jul. 27; 62(2):285-95; Andersen et al., Tissue Antigens. 1999 August; 54(2):185-90).
For the assay, T2 cells were plated in 96-well V-bottom plates, 100 ul/well RPMI media, at a density of 1×10^6 cells/ml, with final peptide concentrations of 200 uM, 20 uM, 2 uM, 200 nM, 20 nM, 2 nM, and no peptide as negative control. The cells with peptides were incubated for 18 hours at 26° C., 5% CO2. After 18 hours, the plates were transferred to 37° C., 5% CO2 and incubated for an additional 3 hours. The cells in plate were washed once with FACS buffer (PBS, 2.5% FCS, 1% NaN3) and then stained by adding 1 ul/well FITC-labeled mouse anti-human HLA-A2 antibody (BD Pharmingen, Cat. No. 551285), 1 ul/well PI, and then incubating at 4° C. for 30 minutes. After staining, cells were resuspended in 200 ul of FACS buffer and transferred from 96-well plates to racks of 96 microtubes. Samples were run on a FACScan flow cytometer and the data were analysed by using CellQuest software.
A peptide of Hepatitis B Core protein (HBC) was used as a positive control. The Hepatitis B Core peptide is a potent HLA-A2.1 epitope and consists of residue numbers 18-27 of the core sequence, amino acids […] (SEQ ID NO:73) (Zhang et al. Immunology. 2007, 121(1):105-12).

Test [2] concerns T2 cells loaded with individual peptides. In words: 51Cr Release Assay for activity of CTL generated with peptide-loaded Drosophila aAPC. In kind it is cell-based, human. Also noted: key to CTL Activity: Strong (S); Median (M); Weak (W); None (N). The method, then:
Drosophila aAPC were generated from Schneider S2 cells (S2 cells), which were originally established in 1969 from several hundred Oregon-R (wild type) Drosophila melanogaster (Oregon-R) embryos (American Type Culture Collection (ATCC) CRL-1963) according to published procedures (Schneider, J. Embryol. Exp. Morph. 1972 Vol 27, pp. 353-365), and deposited in the ATCC(CRL10974). S2 cells are grown in commercial Schneider's Drosophila medium supplemented with 10% heat-inactivated fetal bovine serum. In order to generate aAPCs, human complementary DNAs (cDNAs) for HLA-A2.1, B7.1, LFA-3, ICAM-1 and CD70, were individually inserted into the pRmHa-3 vector and S2 cells were transfected using the calcium phosphate precipitation method with a mixture of HLA-A2.1, B7.1, LFA-3, ICAM-1 and CD70 plasmid DNAs (for aAPC clone 1120) and the phshneo plasmid. (see U.S. Pat. No. 6,225,042 regarding construction and use of pRMHa plasmid vectors). The human cDNAs were prepared using standard techniques by reverse transcription-PCR using primers derived from the published sequences for HLA-A2.1 from K562 cells, B7.1 from K562 cells, LFA-3 from HL60 cells, ICAM-1 from K562 cells, and CD70 from HLA-A2.1+LCL cells. K562 cells are a human erythroleukemic cell line, HL60 cells are a promyelocytic leukemia human cell line, and HLA-A2.1+LCL cells are an Epstein-Barr virus (EBV)-transformed lymphoblastoid cell line (LCL). Stably transfected cells were selected by culturing in Schneider's medium containing geneticin. Prior to scale up of the cells, expression of the transfected genes is induced by the addition of CuSO4. The level of expression is assessed by flow cytometry using anti-HLA-A2.1, anti-B7.1, anti-LFA-3, anti-ICAM-1 and CD70 antibodies. For efficient in vitro activation of the CD8+ lymphocytes, greater than 30% of the Drosophila cells must express the HLA-A2.1 molecule. The Drosophila cells regularly express each of the molecules at levels between 70-90%. Drosophila aAPC were washed and then incubated at RT for 4 hours with 10 μM of different combinations of mixed peptides or individual peptides (See e.g. U.S. Pat. Nos. 6,225,042, 6,355,479, 6,362,001 and 6,790,662; U.S. Patent Application Publication Nos. 2009/0017000 and 2009/0004142; and International Publication No. WO2007/103009). Purified human CD8+ T cells from HLA-A2 positive donors were then incubated with peptide-loaded Drosophila APC at 37° C., 5% CO2, for 5 days. Human IL-2 (20 U/ml, R&D Systems) and IL-7 (30 U/ml, R&D Systems) were added at day 5 and the activated CD8+ T cells (CTL) were re-stimulated twice, at day 7 and day 15, with non-CD8 adherent cells in a total peripheral blood mononuclear cell (PBMC) preparation from the same donor in the presence of peptides.
A number of different CTL were generated using CD8+ T cells from different donors and different combinations of mixed peptides, including combinations that contained only one peptide. For example, 24 selected peptides were mixed or used individually to create different combinations of peptide mixtures (PM) or individual peptides (P5 and P14) and produce peptide-loaded Drosophila APC. The resulting peptide-loaded Drosophila APC were incubated with CD8+ T cells from 2 different donors (Donor 1 and Donor 2) to produce 11 different batches of CTL (Donor 1: PM1, PM2, PM3, PM4, and P14; Donor 2: PM1, PM2, PM3, PM4, P5, and P14) (Table 3).
CTL (Effector) activity was measured with a standard chromium (^51Cr) release assay, with T2 cells (Target) loaded with individual peptides and also with a number of tumor cell lines as target cells (Brunner et al., Immunology. 1968 February; 14(2):181-96). The highest Effector (E) Target (T) ratio (E/T) was 50:1, with 1:5 serial dilutions of CTL (Effector) used to produce a dose response. Before the assay, Target cells (T2 cells at 3×10^6 cells/100 ul in 1×PBS with 4% FCS) were labeled by adding 100 ul of ^51Cr (Perkin Elmer) and incubating at 37° C. for 1 hour. […]

As for “TLVDLPGMTKV (listed as Homo sapiens) [Peptide P13]”, the “HLA-A2 Binding” value in test [1] is reported as “M”. For the same sequence, in test [2] (CTL generated with truncated peptides, T2 targets loaded with individual peptides), the “CTL Activity” value is on record as “M”. Besides, the “Induction of CTL in two normal donors” value in test [2] (Donor 1 and Donor 2, FIG. 3 and FIG. 4) is recorded as “induced CTL”. Further, the “CTL Activities Median” value in test [2] (number of donors that elicited Median activity over total number of donors, T2 targets loaded with individual peptide) is 2/13. The “CTL Activities Strong” value in test [2] (number of donors that elicited Strong activity over total number of donors, T2 targets loaded with individual peptide) is 4/13. Further, in test [2] (number of donors that elicited Weak activity over total number of donors, T2 targets loaded with individual peptide), the “CTL Activities Weak” value was 5/13. Moreover, the “CTL Activities None” value in test [2] (number of donors that elicited no activity over total number of donors, T2 targets loaded with individual peptide) is recorded as 2/13.
